Measured values as given in patent US10227329B2, “Compounds useful for treating disorders related to RET” (BLUEPRINT MEDICINES CORPORATION, priority 2016, dated 2019).

How the values were obtained:
[1] = biological target: wild type RET (Homo sapiens (Human), UniProt P07949); experiment: RET Wild Type Assay at KM (Caliper electrophoretic mobility shift); assay type: biochemical; conditions: 25 μM ATP (KM)
[2] = biological target: RET V804L (Homo sapiens (Human), UniProt P07949, V804L); experiment: RET V804L Gatekeeper Mutant Assay at KM (Caliper electrophoretic mobility shift); assay type: biochemical; conditions: 10 μM ATP (KM), read-out: V480L Mutant
RET V804L, sequence (P07949 29-1114 V804L): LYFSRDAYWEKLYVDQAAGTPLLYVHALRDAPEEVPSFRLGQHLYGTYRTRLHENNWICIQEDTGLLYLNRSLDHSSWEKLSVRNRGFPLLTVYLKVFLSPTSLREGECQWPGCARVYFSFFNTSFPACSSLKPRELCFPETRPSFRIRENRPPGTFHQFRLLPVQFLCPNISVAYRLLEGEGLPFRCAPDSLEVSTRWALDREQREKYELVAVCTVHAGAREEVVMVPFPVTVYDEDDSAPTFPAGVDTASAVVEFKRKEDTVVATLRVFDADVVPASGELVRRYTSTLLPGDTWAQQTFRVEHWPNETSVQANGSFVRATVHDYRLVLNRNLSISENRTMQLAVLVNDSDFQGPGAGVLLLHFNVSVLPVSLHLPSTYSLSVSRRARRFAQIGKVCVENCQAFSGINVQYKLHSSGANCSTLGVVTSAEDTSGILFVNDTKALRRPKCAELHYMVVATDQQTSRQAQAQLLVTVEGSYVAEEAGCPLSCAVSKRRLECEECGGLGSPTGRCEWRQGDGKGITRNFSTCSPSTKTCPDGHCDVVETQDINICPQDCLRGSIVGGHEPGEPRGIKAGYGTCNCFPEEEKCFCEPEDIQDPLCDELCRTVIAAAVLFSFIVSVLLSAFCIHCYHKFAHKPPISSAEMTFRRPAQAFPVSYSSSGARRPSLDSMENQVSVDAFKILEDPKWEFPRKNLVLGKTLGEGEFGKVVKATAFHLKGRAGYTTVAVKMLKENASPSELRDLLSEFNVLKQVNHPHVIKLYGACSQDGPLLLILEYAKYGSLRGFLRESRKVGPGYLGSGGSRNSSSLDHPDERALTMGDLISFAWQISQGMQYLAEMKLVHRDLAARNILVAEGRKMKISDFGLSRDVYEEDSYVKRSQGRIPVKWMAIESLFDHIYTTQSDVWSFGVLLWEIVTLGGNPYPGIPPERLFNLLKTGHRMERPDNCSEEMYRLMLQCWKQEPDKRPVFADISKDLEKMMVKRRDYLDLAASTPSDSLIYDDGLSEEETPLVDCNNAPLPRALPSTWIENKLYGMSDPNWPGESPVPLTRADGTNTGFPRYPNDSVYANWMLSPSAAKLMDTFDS

wild type RET, sequence (P07949 29-1114): as the sequence (P07949 29-1114 V804L) above, with L776V counted along it

| Structure (SMILES) | IC50 [1] [nM] | IC50 [2] [nM] |
| --- | --- | --- |
| COC1(C(=O)N[C@@H](C)c2ccc(-n3cc(F)cn3)nc2)CCN(c2cc(C)nc(Nc3cc(C)[nH]n3)n2)CC1 [Compound 220] | < 10 | < 10 |
| COC1(C(=O)NCc2ccc(-n3cccn3)nc2)CN(c2nc(Nc3cc(C)[nH]n3)cc(C)c2F)C1 [Compound 146] | < 10 | < 10 |
| Cc1cc(Nc2cc(C)[nH]n2)nc(N2CC[C@H](C(=O)NCc3ccc(-n4cccn4)nc3)[C@H](O)C2)c1 [Compound 135] | 10 to 100 | 10 to 100 |
| Cc1cc(Nc2cc(C)[nH]n2)nc(N2CCC(C)(C(=O)NCc3ccc(-n4cccn4)nc3)CC2)n1 [Compound 129] | < 10 | < 10 |
| Cc1cc(Nc2cc(C)[nH]n2)nc(N2CCC(O)(C(=O)N(C)Cc3ccc(-n4cccn4)nc3)CC2)n1 [Compound 162] | < 10 | < 10 |
| COC1(C(=O)NCc2ccc(-n3ccc(C4CC4)n3)nc2)CN(c2nc(C)cc(Nc3cc(C)[nH]n3)n2)C1 [Compound 179] | < 10 | < 10 |
| Cc1cc(Nc2cc(C)[nH]n2)nc(N2CC[C@H](C(=O)NCc3ccc(-n4cccn4)nc3)[C@@H](O)C2)c1 [Compound 132] | < 10 | < 10 |
| CCC1(C(=O)N[C@@H](C)c2ccc(-n3cc(F)cn3)nc2)CN(c2nc(C)cc(Nc3cc(C)[nH]n3)n2)C1 [Compound 166, (S)-3-ethyl-N-(1-(6-(4-fluoro-1H-pyrazol-1-yl)pyridin-3-yl)ethyl)-1-(4-methyl-6-((5-methyl-1H-pyrazol-3-yl)amino)pyrimidin-2-yl)azetidine-3-carboxamide] | < 10 | < 10 |
| COC1(C(=O)NCc2ccc(-n3cc(F)cn3)nc2)CCN(c2nc(Nc3cc(C)[nH]n3)cc(C)c2C#N)CC1 [Compound 226] | < 10 | < 10 |
| COC1(C(=O)NCc2ccc(-n3cccn3)nc2)CN(c2cc(C(F)F)cc(Nc3cc(C)[nH]n3)n2)C1 [Compound 173] | < 10 | < 10 |
| Cc1cc(Nc2cc(C)[nH]n2)nc(N2CCC(OCC(F)(F)F)(C(=O)NCc3ccc(-n4cccn4)nc3)CC2)n1 [Compound 228] | < 10 | < 10 |
| Cc1cc(Nc2cc(C)[nH]n2)nc(N2CC(O)(C(=O)NCc3ccc(-n4cccn4)nc3)C2)c1 [Compound 110] | 10 to 100 | < 10 |
| Cc1cc(Nc2cc(C)[nH]n2)nc(N2CCC(C)(C(=O)N[C@@H](C)c3ccc(-n4cc(F)cn4)nc3)CC2)n1 [Compound 191] | < 10 | < 10 |
| COC1(C(=O)NCc2ccc(N3CC(F)C3)nc2)CN(c2nc(C)cc(Nc3cc(C)[nH]n3)n2)C1 [Compound 125] | > 100 | > 100 |
| COC1(C(=O)NCc2ccccc2)CCN(c2nc(C)cc(Nc3cc(C)[nH]n3)n2)CC1 [Compound 104] | > 100 | 10 to 100 |
| COC1(C(=O)N[C@@H](C)c2ccc(-n3cc(F)cn3)nc2)CN(c2nc(C)cc(Nc3cc(C)[nH]n3)n2)C1 [Compound 169] | < 10 | < 10 |
| Cc1cc(Nc2cc(C(F)F)cc(N3CC(F)(C(=O)N[C@@H](C)c4ccc(-n5cc(F)cn5)nc4)C3)n2)n[nH]1 [Compound 210] | < 10 | < 10 |
| Cc1cc(Nc2cc(C)[nH]n2)nc(N2CC(C(=O)N(C)[C@@H](C)c3ccc(-n4cc(F)cn4)nc3)C2)c1 [Compound 140] | < 10 | < 10 |
| Cc1cc(Nc2cc(C)[nH]n2)nc(N2CC(F)(C(=O)NCc3ccc(-n4cccn4)nc3)C2)c1 [Compound 111] | < 10 | < 10 |
| Cc1cc(Nc2cc(C)c(C#N)c(N3CC(F)(C(=O)NCc4ccc(-n5cccn5)nc4)C3)n2)n[nH]1 [Compound 128] | < 10 | < 10 |
| Cc1cc(Nc2cc(C)[nH]n2)nc(N2CC(C(=O)N[C@@H](C)c3ccc(-n4cc(F)cn4)nc3)C2)c1 [Compound 119] | < 10 | < 10 |
| COC1(C(=O)N[C@@H](C)c2ccc(-n3cc(F)cn3)nc2)CN(c2nc(Nc3cc(C)[nH]n3)cc(C)c2F)C1 [Compound 202] | < 10 | < 10 |
| Cc1cc(Nc2cc(C)[nH]n2)nc(N2CCC(O)(C(=O)N(C)[C@@H](C)c3ccc(-n4cccn4)nc3)CC2)n1 [Compound 187] | < 10 | < 10 |
| Cc1cc(Nc2cc(C)[nH]n2)nc(N2CC(C(=O)N(C)[C@@H](C)c3ccc(-n4cc(F)cn4)nc3)C2)n1 [Compound 142] | < 10 | < 10 |
| Cc1cc(Nc2cc(C)[nH]n2)nc(N2CC(F)(C(=O)N[C@@H](C)c3ccc(-n4cc(F)cn4)nc3)C2)c1 [Compound 151] | < 10 | < 10 |
| COC1(C(=O)NCc2ccc(-n3cccn3)nc2)CCN(c2cc(C)cc(Nc3cc(C)[nH]n3)n2)CC1 [Compound 160, N-((6-(1H-pyrazol-1-yl)pyridin-3-yl)methyl)-4-methoxy-1-(4-methyl-6-(3-methyl-1H-pyrazol-5-ylamino)pyridin-2-yl)piperidine-4-carboxamide] | < 10 | < 10 |
